{"source": "patent US20110112187A1", "about": "“Use Of Tranilast And Derivatives Thereof For The Therapy Of Neurological Conditions” (priority 2007, published 2011)", "key": {"[1]": {"system": "neural stem cells", "experiment": "In vitro differentiation assay on adult neuronal stem cells (beta-III-tubulin promoter dual luciferase reporter)", "format": "cell-based, rat", "details": "48 hrs; concentration ranges within 0.01 to 100 μM; versus sham treated cells", "source_text": "The neuroregenerative effect of the compounds according to the present invention can be assayed in vitro by measuring their stimulation of the differentiation of neuronal stem cells. Therefore, adult neuronal stem cells have to be isolated and subsequently cultivated in a suitable culture medium. After several passages in vitro the stem cells have to be co-transfected with a DNA construct coding for two discriminable reporter proteins one of them under the control of a constitutive promoter and the other under the control of a beta-III-tubulin promoter. The beta-III-tubulin promoter is induced during the process of neuronal stem cell differentiation; therefore the reporter protein under the control of this promoter serves as a marker for the stem cell differentiation in such an in vitro dual reporter assay (Schneider et al., J Clin Investigation 2005; 115:2083-2098). The person skilled in the art knows several suitable constitutive promoters such as the SV40-promoter, the TK-promoter, or the CMV-promoter. As discriminable reporter proteins for such a dual reporter assay one can use discriminable luciferases such as firefly luciferase and Renilla luciferase. The transfected cells have to be incubated with the test compound and with positive and negative controls for normalization and background correction. As a positive control compound one can use retinoic acid (Guan et al., Cell Tissue Res. 2001; 305:171-176; Jacobs et al., Proc. Natl. Acad. Sci. USA 2006; 103:3902-3907), a suitable negative control is the sham treatment of the cells. The neroregenerative activity of the test compound is determined as the ratio of the signal of the beta-III-tubulin promoter controlled reporter versus the signal of the constitutively expressed reporter and is expressed as fold from the control. This assay is suitable to assess the neuroregenerative activity of tranilast and derivatives thereof, but also can be used to screen for other potential neuroregenerative compounds. Preferably, such a screening can be used to test compounds which are already known to be suitable as a medicament in terms of its toxicology, bioavailability, solubility, stability etc.\nNeural stem cells were isolated from the subventricular zone of 4 week-old male Wistar rats as described (Maurer et al, Proteome Sci. 2003; 1:4). Cells were cultivated in Neurobasal medium (Invitrogen) supplemented with B27 (Invitrogen), 2 mM L-glutamine, 100 units/ml penicillin, 100 units/ml streptomycin, 20 ng/ml […] growth factor (EGF), 20 ng/ml fibroblast growth factor-2 (FGF-2), and […] heparin. Once a week the neural stem cells were passaged and experiments were performed after 4 weeks in vitro. For DNA transfection, the cells were dissociated and plated on poly-L-ornithin/laminin-coated 96-well plates at a density of 50.000 cells/well. Cotransfection with the pGL3-p-βIII-tubulin vector (100 ng/well) and the pRL SV40 vector (100 ng/well) was carried out according to the FuGene6 Transfection protocol (Roche). The pRL SV40 vector (Promega) served as an internal control vector.\nTo amplify the class III β-tubulin gene promoter (fragment −450-+54), rat genomic DNA was used as a template for PCR (Dennis et al., Gene 2002; 294:269-277). The amplified fragment was inserted into the Mlu I/Xho I site of the pGL3-Basic firefly luciferase reporter vector (Promega) to generate the pGL3-p-βIII-tubulin experimental vector.\nAfter overnight incubation, the plate was decanted and given in 8-fold replicates fresh medium containing tranilast (Sigma) or vehicle. As a positive control for in vitro differentiation, stem cells were treated by adding 1 μM retinoic acid (Sigma) to the medium missing the mitogens.\nAfter 48 hrs, the cells were harvested to prepare the cellular extracts for luciferase assay following the directions of the manufacturer (Promega). […]"}, "[2]": {"system": "SH-SY5Y neuronal cells", "experiment": "In vitro viability assay (constitutive Renilla luciferase reporter)", "format": "cell-based, human", "details": "0.8 μM to 50 μM, 5 h", "protocol": "The viability assay allows for further assessment of test compounds regarding their effect on cells such as neurons. Therefore, a stably transfected cell line (e.g. SH-SY5Y cells) with a reporter construct (e.g. a luciferase construct) has to be incubated with the test compound and in parallel with positive and negative controls (e.g. staurosporine and sham, respectively). Subsequently, the signal generated by the reporter construct serves as a readout for the viability of the cells in the presence of the test compound. The assay enables the evaluation of potential neurotoxic effects of the test compound itself. […]\nSH-SY5Y neuronal cells stably transfected with a Renilla luciferase construct under the SV40 promoter were seeded in 96-well plates at a density of 2.5×10^4 cells per well. […] The Renilla luciferase activity was measured 5 h later using a luminometer (Berthold Technologies, Mithras LB 940). […]\nAnalogously to Example 5, various derivatives of tranilast (N-(3′,4′-methylenedioxycinnamoyl)-anthranilic acid (FIG. 2a (ChemBridge Corporation)), 2-(3′,4′-dimethoxycinnamoylamino)-toluene (FIG. 2b (ChemBridge Corporation)), N-cinnamoyl-anthranilic acid (FIG. 2c (ChemBridge Corporation)), and 2-(3′,4′-dimethoxycinnamoylamino)-anisole (FIG. 2d (Ambinter SARL))) have been analysed for their effect on the viability of neuronal cells. […]"}}}
{"compound": "COc1ccc(/C=C/C(=O)Nc2ccccc2C(=O)O)cc1OC", "note": "[tranilast, 2-((3-(3,4-dimethoxyphenyl)-1-oxo-2-propenyl)amino)benzoic acid]", "values": [{"measurement": "differentiation of neural stem cells to neurons (relative induction of the class III β-tubulin gene promoter controlled luciferase signal)", "setting": "[1]", "result": "significantly stimulates the differentiation of neural stem cells to neurons"}, {"measurement": "effect on the viability of neuronal cells (Renilla luciferase activity)", "setting": "[2]", "result": "did not show any significant effect on the viability of the neuronal cells"}]}
